From patent US9399032B2, “Methods and compositions for treating degenerative and ischemic disorders” (The General Hospital Corporation, priority 2009, dated 2016)
Where a name gives a salt, the structure may show the parent alone. Read-outs that look alike come from different tables or passages of the source.

Tested on: MCH58 fibroblasts
Test: Glucose versus galactose cell growth screen (metabolic state-dependent lethality)
[1] = approximately 10 μM compound, 72 hours, log10 fold change of normalized cell number in glucose versus galactose

Procedure: The assay included monitoring or measuring cell growth in cells that are grown in glucose (which allows the cell to utilize glycolysis) or in galactose (which switches the cell energy production from glycolysis to the OXPHOS pathway).
The high glucose medium was replaced with 10 mM glucose or 10 mM galactose wherever indicated. All media contained 1 mM pyruvate and 4 mM glutamine.
Cell number quantification high throughput assays were performed as follows. […] 24 hours later, cells were washed twice in PBS and media was replaced with either 10 mM glucose or 10 mM galactose containing media.
Approximately 100 nL of each compound was pin-transferred in duplicate into the plates with a steel pin array using the CyBi-Well robot (CyBio). […] Compound-treated plates were incubated at 37° C. for 72 hours. […] Wells were then washed once and stored in PBS. Cell culture plates were stored at 4° C. until time of imaging, which was at most 24 hours after fixation.
Imaging was performed by Arrayscan VTi automated microscope (ThermoFisher Scientific) with the use of an automated plate stacker. Appropriate filter sets for the detection of the Hoescht fluorescent signal were used. Four non-overlapping images at 5× magnification (NA 0.25) were acquired for a field of view of 1.3 mm×1.3 mm per image. The plate stacker and microscope including an auto-focusing algorithm were controlled entirely with ArrayScan software. Images were captured and stored simultaneously in at least two independent locations. Image analysis was performed using the freely available open-source software package CellProfiler. […] Images were analyzed individually by first identifying nuclei using the Hoescht staining signal.
Total number of nuclei per field were recorded, and the four images per well were totaled to give the cell count per well. Computation was performed using a UNIX computer cluster. Appropriate masking of each nucleus was ensured by visually monitoring each batch at its onset and intermittently throughout the run.
The fibroblast cells were seeded on Day 0 and incubated for 24 hours in standard culture media.
Normalized cell counts were computed separately for each 96-well plate by dividing the cell count of each well with the trimmed mean (the average after discarding the largest and smallest value) of the cell counts for the 16 DMSO treated wells. […] The remaining replicate measurements were averaged, and fold changes were computed as the ratio between the average normalized counts for the glucose and galactose screens. To evaluate statistical significance, Z-scores were computed for each well against the DMSO (null) distribution and averaged Z-scores across replicates. Wells with average Z-score greater than 2.5 were considered significant.
By jointly analyzing the glucose and galactose results, a glucose-galactose cell growth ratio can be calculated (Sglu/gal) that represents the log10 fold-change in cell growth in a glucose rich media divided by the log10 fold-change in cell growth in a galactose rich media. […] Low Sglu/gal scores (e.g., ranging between approximately (−) 0.1 to (−) 0.7) may arise from inhibition of glycolysis or from inhibition of proliferation, since cells grown in glucose-rich media divide more rapidly.

| Molecule | Sglu/gal (log10 fold change) Score [1] | further results |
| --- | --- | --- |
| CC(C)N(C(=O)CCl)c1ccccc1 [propachlor] | −0.26 |  |
| CCCCCCCCCCCCCCCC[N+](C)(C)CCN(Cc1ccc(OC)cc1)c1ncccn1 [Thonzonium bromide] | 0.38 |  |
| CC(C)c1c(O)ccc2c1CCC1C(C)(C(=O)O)CCCC21C (centres unmarked) [Totarol-19-carboxylic acid] | 0.80 |  |
| CC1=C(O)C(=O)C=C2C1=CC=C1[C@@]2(C)CC[C@@]2(C)[C@@H]3C[C@](C)(C(=O)O)CC[C@]3(C)CC[C@]12C [celastrol] | −0.29 |  |
| COc1cc2c(cc1OC)[C@@H]1C(=O)c3ccc(O)c(CC=C(C)C)c3O[C@@H]1CO2 [Rotenonic acid] | 0.33 |  |
| CN(C)CCC=C1c2ccccc2CCc2ccccc21 [amitriptyline] |  | inhibitory activity against cell growth in galactose (SAR analysis) (galactose versus glucose): moderate inhibitory activity |
| 15-norcaryophyllen-3-one | −0.29 |  |
| OC(c1cc(C(F)(F)F)nc2c(C(F)(F)F)cccc12)C1CCCCN1 (centres unmarked) [Mefloquine] | 0.20 |  |
| CC[n+]1c(-c2ccccc2)c2cc(N)ccc2c2ccc(N)cc21 [homidium bromide] | −0.54 |  |
| CC(C)=CCC[C@]1(C)C=Cc2c(O)c3c(c(CC=C(C)C)c2O1)O[C@]12C(=C[C@@H]4C[C@H]1C(C)(C)O[C@@]2(C/C=C(/C)C(=O)O)C4=O)C3=O [gambogic acid] | −0.34 |  |
| O=c1[nH]c(=O)n([C@H]2C[C@H](O)[C@@H](CO)O2)cc1F [floxuridine] | −0.28 |  |
| N=C(N)c1ccc(OCCCCCOc2ccc(C(=N)N)cc2)cc1 [Pentamidine isethionate] | 0.24 |  |
| Nc1c2ccccc2nc2ccccc12 [aminacrine] | −0.29 |  |
| Cc1c(O)c(O)cc2c1CC=C1[C@@]2(C)CC[C@@]2(C)[C@@H]3C[C@](C)(C(=O)O)CC[C@]3(C)CC[C@]12C [dihydrocelastrol] | −0.31 |  |
| Cl.Cl.O=C1c2c(O)ccc(O)c2C(=O)c2c(NCCNCCO)ccc(NCCNCCO)c21 [mitoxanthrone hydrochloride] | −0.73 |  |
| O=c1[nH]c(=O)n([C@H]2C[C@H](O)[C@@H](CO)O2)cc1C(F)(F)F [Trifluridine] | −0.26 |  |
| CO[C@@H]1C[C@@H](C[C@H]2CC[C@H](C)[C@H]([C@@H](C)C(=O)O)O2)O[C@]2(O[C@](C)([C@H]3CC[C@@](C)([C@@H]4O[C@@H]([C@H]5O[C@@](O)(CO)[C@H](C)C[C@@H]5C)C[C@@H]4C)O3)C[C@H]2C)[C@@H]1C [nigericin sodium] | −0.31 |  |
| C[C@]12CC[C@H](O)C[C@H]1CC[C@@H]1[C@@H]2[C@H](O)C[C@]2(C)[C@@H](C3=CC(=O)OC3)CC[C@]12O [sarmentogenin] | −0.21 |  |
| CC[C@@]1(O)C[C@H](O[C@H]2C[C@H](N(C)C)[C@H](O)[C@H](C)O2)c2c(cc3c(c2O)C(=O)c2c(O)cccc2C3=O)[C@H]1C(=O)OC [aklavine hydrochloride] | −0.33 |  |
| CN(C/C=C/c1ccccc1)Cc1cccc2ccccc12 [Naftifine hydrochloride] | 0.19 |  |
| CN(C)CCC=C1c2ccccc2C=Cc2ccccc21 [Cyclobenzaprine hydrochloride] | 0.13 |  |
| Clofilium tosylate | 0.42 |  |

| Molecule | Sglu/gal (log10 fold change) Score [1] | further results |
| --- | --- | --- |
| COc1c(-c2coc3cc4c(cc3c2=O)CC(O)C(C)(C)O4)ccc2c1C=CC(C)(C)O2 (centres unmarked) [Mundulone] | 0.50 |  |
| CC[C@@]1(O)C[C@H](O[C@H]2C[C@H](N(C)C)[C@H](O)[C@H](C)O2)c2c(cc3c(c2O)C(=O)c2c(O)ccc(O)c2C3=O)[C@H]1C(=O)OC [pyrromycin] | −0.30 |  |
| picropodophyllotoxin acetate | −0.24 |  |
| CC1(C)C(=O)C=C[C@@]2(C)C1=C(O)C(=O)[C@]1(C)[C@@H]2CC[C@@]2(C)[C@H](c3ccoc3)C[C@H]3O[C@]321 [cedrelone] | −0.22 |  |
| CC(C)=CCCC1(C)C=Cc2c(O)c3c(c(CC=C(C)C)c2O1)OC12C(=CC4CC1C(C)(C)OC2(C/C=C(/C)C(=O)O)C4O)C3=O (centres unmarked) [dihydrogambogic acid] | −0.32 |  |
| CC[C@]1(O)C[C@@H]2CN(CCc3c([nH]c4ccccc34)[C@@](C(=O)OC)(c3cc4c(cc3OC)N(C)[C@H]3[C@@](O)(C(=O)OC)[C@H](OC(C)=O)[C@]5(CC)C=CCN6CC[C@]43[C@@H]65)C2)C1 [vinblastine sulfate] | −0.27 |  |
| CC1(C)C(=O)C=C[C@]2(C)[C@H]3CC[C@@]4(C)[C@H](c5ccoc5)OC(=O)[C@H]5O[C@]54[C@]3(C)C=C[C@@H]12 [7-desacetoxy-6,7-dehydrogedunin] | −0.22 |  |
| CO[C@H]1C=C[C@@]23c4cc5c(cc4CN(C[C@@H]2O)[C@H]3C1)OCO5 [crinamine] | −0.22 |  |
| C=C1C(=O)O[C@@H]2C[C@@]3(C)CCC[C@H](C)C3=C[C@H]12 [helenine] | −0.22 |  |
| Cc1cc(C(C)(C)CC(C)(C)C)ccc1OCCOCC[N+](C)(C)Cc1ccccc1.[Cl-] [Methyl benzethonium chloride] | 0.80 | Sglu/gal (log10 fold change) Score (approximately 10 μM compound, 72 hours, log10 fold change of normalized cell number in glucose versus galactose, listed as Methylbenzethonium chloride): 0.46 |
| CCCCc1ccc2[nH]c(NC(=O)OC)nc2c1 [Parbendazole] | −0.24 |  |
| O=C1O[C@H]([C@@H](O)CO)C(O)=C1O [Ascorbic acid] | 0.15 |  |
| COc1ccc(Cc2nccc3cc(OC)c(OC)cc23)cc1OC [Papaverine hydrochloride] | 0.30 |  |
| Cc1cc(N)c2ccccc2[n+]1CCCCCCCCCC[n+]1c(C)cc(N)c2ccccc21 [Dequalinium dichloride] | 0.42 |  |
| C[C@@H]1CC[C@H]2[C@@H](C)C(=O)O[C@@H]3O[C@@]4(C)CC[C@@H]1[C@]32OO4 [Artemisinin] | 0.17 |  |
| COc1cc2c(c(OC)c1OC)-c1ccc(OC)c(=O)cc1[C@@H](NC(C)=O)CC2 [Colchicine] | −0.26 |  |
| CCCCC(CC)CNC(=N)NC(=N)NCCCCCCNC(=N)NC(=N)NCC(CC)CCCC (centres unmarked) [Alexidine dihydrochloride] | 0.44 |  |
| COc1cc2c(cc1OC)[C@@H]1C(=O)c3ccc4oc(C(C)C)cc4c3O[C@@H]1CO2 [Isorotenone] | 0.71 |  |
| COC(=O)[C@]1(C)CC[C@]2(C)CC[C@]3(C)C4=CCc5c(cc(O)c(O)c5C)[C@]4(C)CC[C@@]3(C)[C@@H]2C1 [pristimerol] | −0.45 |  |
| CC(C)n1c(/C=C/C(O)CC(O)CC(=O)O)c(-c2ccc(F)cc2)c2ccccc21 (centres unmarked) [Fluvastatin sodium salt] | 0.16 |  |
| CCOC(=O)C1=C[C@]2(CC)CCCN3CCc4c(n1c1ccccc41)[C@@H]32 [Vinpocetine] | 0.23 |  |
| Deguelin(-) | 0.69 |  |

| Molecule | Sglu/gal (log10 fold change) Score [1] | further results |
| --- | --- | --- |
| Nonoxynol-9 | 0.46 |  |
| CO[C@H]1[C@H](O)[C@H](O[C@H]2CC[C@@]3(C)[C@H](CC[C@@H]4[C@@H]3CC[C@]3(C)[C@@H](C5=CC(=O)OC5)CC[C@]43O)C2)O[C@@H](C)[C@@H]1O [neriifolin] | −0.21 |  |
| COc1ccccc1OCCNCC(O)COc1cccc2[nH]c3ccccc3c12 (centres unmarked) [Carvedilol] | 0.15 |  |
| [H]/N=C(\N/C(=N/[H])NCCCCCCNC(=N)NC(=N)Nc1ccc(Cl)cc1)Nc1ccc(Cl)cc1 [Chlorhexidine] | 0.16 |  |
| CN1CCC[C@@H]1CCO[C@](C)(c1ccccc1)c1ccc(Cl)cc1 [Clemastine fumarate] | 0.19 |  |
| CCCCCCc1ccc(O)cc1O.Nc1c2ccccc2nc2ccccc12 [acrisorcin] | −0.36 |  |
| Clc1ccc(C(Cn2ccnc2)OCc2csc3c(Cl)cccc23)c(Cl)c1 (centres unmarked) [Sertaconazole nitrate] | 0.19 |  |
| CC[C@H]1CN2CCc3cc(OC)c(OC)cc3[C@@H]2C[C@@H]1C[C@H]1NCCc2cc(OC)c(OC)cc21 [emetine] | −0.22 |  |
| C=C1C(=O)O[C@H]2C[C@@H]1C(OC(C)=O)C/C(C)=C/CC/C(C)=C/CC[C@@]2(C)O (some centres unmarked) [crassin acetate] | −0.35 |  |
| CC(=O)O[C@H]1C(=O)[C@@]2(C)[C@H]([C@H](OC(=O)c3ccccc3)[C@]3(O)C[C@H](OC(=O)[C@H](O)[C@@H](NC(=O)c4ccccc4)c4ccccc4)C(C)=C1C3(C)C)[C@]1(OC(C)=O)CO[C@@H]1C[C@@H]2O [paclitaxel] | −0.22 |  |
| COC(=O)[C@]1(C)CC[C@]2(C)CC[C@]3(C)C4=CC=C5C(=CC(=O)C(O)=C5C)[C@]4(C)CC[C@@]3(C)[C@@H]2C1 [pristimerin] | −0.37 |  |
| O=C(Nc1ccc([N+](=O)[O-])cc1Cl)c1cc(Cl)ccc1O [Niclosamide] | 0.15 |  |
| COc1ccc(C[C@H]2NC[C@H](O)[C@H]2OC(C)=O)cc1 [anisomycin] | −0.24 |  |
| CC(=O)O[C@@H]1C[C@@]2(C)[C@H](c3ccoc3)C[C@H]3O[C@]32[C@]2(C)C(=O)C(O)=C3C(C)(C)C(=O)C=C[C@]3(C)[C@@H]12 [anthothecol] | −0.30 |  |
| CCN(CC)CCCC(C)Nc1c2ccc(Cl)cc2nc2ccc(OC)cc12 (centres unmarked) [quinacrine hydrochloride] | −0.30 |  |
| Oc1c(Cl)cc(Cl)c2cccnc12 [chloroxine] | −0.23 |  |
| CC[C@@]1(O)C(=O)OCc2c1cc1n(c2=O)Cc2cc3ccccc3nc2-1 [camptothecin] | −0.26 |  |
| COc1cc2c(cc1OC)[C@@H]1C(=O)c3ccc(OC)c(CC=C(C)C)c3O[C@@H]1CO2 [Rotenonic acid, methyl ether] | 0.34 |  |
| C#C[C@]1(OC(C)=O)CC[C@H]2[C@@H]3CCC4=C[C@@H](OC(C)=O)CC[C@@H]4[C@H]3CC[C@@]21C [Ethynodiol diacetate] | 0.15 |  |
| [O-][n+]1ccccc1[S-].[O-][n+]1ccccc1[S-].[Zn+2] [pyrithione zinc] |  | Sglu/gal (log10 fold change) Score: −0.25 |
